± gives the uncertainty stated by the source.
Conditions: 101 kPa

CCCN(CCC)CCC
viscosity (293.15 K): 0.67 ± 0.009 mPa·s | viscosity (298.15 K): 0.523 ± 0.006 mPa·s | viscosity (303.15 K): 0.495 ± 0.005 mPa·s | viscosity (308.15 K): 0.46 ± 0.01 mPa·s | viscosity (313.15 K): 0.45 ± 0.01 mPa·s | viscosity (318.15 K): 0.412 ± 0.004 mPa·s | viscosity (323.15 K): 0.38 ± 0.004 mPa·s
